Assay results: patent publication US20250221953A1 (The University of Chicago, priority 2022, published 2025)

How the values were obtained:
[1] = Extraction and quantification of TVA levels by NMR (mouse serum and TIF); format: in vivo; conditions: B16F10 tumor bearing mice, TVA-enriched diet; 1H NMR
[2] = system: anti-human CD19-CD28z-GFP CAR T cells; test: CAR-T cell expansion assay; format: cell-based; conditions: 20 μM TVA
[3] = system: mouse primary CD8^+ T cells; test: cAMP level; format: cell-based; conditions: 20 μM TVA; 0, 20 minutes, 40 minutes, 2 hours
[4] = system: human CD8^+ T cells; test: KAS-seq, human CD8+ T cells; format: cell-based; conditions: 20 μM TVA, 20 min-2 h
Method: (§1) 500 mM N3-kethoxal was then supplemented into the media followed by brief, vigorous shaking to fully homogenize the solution. The 6-well plates were then moved into the cell incubator (37° C., 5% CO2) for 10 minutes to promote labeling of genomic single-stranded DNA (ssDNA). Cell suspensions were then transferred to 15 mL conical tubes and centrifuged at 300×g for 5 minutes at 4° C. The supernatant media was discarded, and genomic DNA was then extracted. […] Dual index libraries were constructed for high throughput sequencing using an Accel-NGS Methyl-seq DNA library kit and then sequenced at the Genomics Facility (University of Chicago) via Illumina NovaSeq 6000 (SP flowcell, 100 bp cassette) in two separate runs. […] M. musculus and H. sapiens CD8^+ T cell KAS-seq data were assessed separately.

[5] = system: primary CD4^+ T cells; test: In vitro function of activated mouse primary CD4+ T cells; format: cell-based; conditions: TVA treatment in vitro
[6] = system: tumor infiltrating immune cells; test: Tumor immune cell analysis (macrophages, CD8, Tregs, DCs); format: in vivo; conditions: TVA treatment
[7] = system: Mouse CD4^+ T cell; test: Second screen: IL-2 level of mouse CD4+ T cells
[8] = system: tumor-infiltrating CD8^+ T cells
Method: After incubation at 37° C. for 25 min on a shaking platform, the digested tumor tissues were transferred into a 70 μm mesh nylon strainer on a 50 mL conical tube, pushed through the strainer using the rubber end of a syringe plunger, and rinsed with the recommended medium. After centrifugation at 300×g for 10 min at room temperature with the brake on low, the resulting cell pellets were added 10 mL of ammonium chloride solution for incubation at room temperature for 5 minutes, followed by centrifugation at 300×g for 10 minutes at room temperature with the brake on low.
Freshly excised mouse tumor tissues were minced into small pieces (volume smaller than 1 mm^3) by scissors in PBS, digested by Collagenase IV (1 mg/mL) and DNase I (200 U/mL) at 37° C. for 20 minutes in PBS with gentle rocking. The digested tumor tissues were added 5 times volume 0.01M EDTA, filtered into new tube through 200 mesh screen (100 μm strainer), and then centrifuged at 300×g for 5 minutes at room temperature. The resulting cell pellets were re-suspended with 3 mL PBS, laid gently on 3 mL lymphocytes isolation liquid (pre-warmed to room temperature), and subjected to density gradient centrifugation (300×g, 30 minutes, room temperature, accelerate 6, decelerate 2). The middle layer of cells was moved carefully to a new tube, added PBS to 15 mL, and centrifuged (300×g, 10 minutes, room temperature). The cell pellets (lyse red cells if necessary) were designated tumor-infiltrating lymphocytes and used for following experiments.
Mouse spleens were disrupted with syringe plunger in 1 mL PBS in a 40 μm strainer filtered to a 15 mL tube, washed with PBS and centrifuged at 300×g for 5 minutes. The resulting cell pellets were re-suspended the with 2 mL red cell lysis buffer (Invitrogen), incubated at room temperature for 10 minutes, and centrifuged at 300×g for 5 minutes after adding 13 mL PBS. The resulting cell pellets was designated splenocytes and used for following experiments.
Draining lymph nodes were disrupted with syringe plunger in 1 mL PBS in a 40 μm strainer filtered to a 15 mL tube, washed with PBS, and centrifuged at 300×g for 5 minutes. The resulting cell pellets was designated LN Lymphocytes and used for following experiments.
Mouse primary cells isolated from tumor, spleen, draining lymph node were stained with fluorescent antibodies and analyzed by flow cytometry.
For experiments with live/dead criteria, cells were first stained with Fixable Viability Dyes (FVD) (Thermo Fisher Scientific) according to the manufacturer's instructions. Subsequent surface marker staining was performed in Flow Cytometry Staining Buffer (Thermo Fisher Scientific). Intracellular staining for flow panels containing nuclear proteins was performed using the eBioscience FoxP3/Transcription Factor Staining Buffer Set (Thermo Fisher Scientific) according to the manufacturer's instructions. For intracellular staining of cytoplasmic proteins, the Fixation/Permeabilization Solution Kit (BD Biosciences) was used according to the manufacturer's instructions.
For phospho antibody staining, cells were incubated with FVD (cell viability dye) for 15 minutes at room temperature in a tube, re-suspended with 200 μL pre-warmed 1×BD Phosflow Lyse/Fix buffer directly into the tube, and incubated at 37° C. for 10-15 minutes, followed by centrifugation at 300×g for 5 minutes. The resulting cell pellets were washed once with FACS buffer, permeabilized with 200 μL of BD Phosflow Perm Buffer III for 45 minutes on ice, and centrifuged at 300×g for 5 minutes.

[9] = system: human T cell and CD8^+ T cell treated with rhPD-L1; test: rhPD-L1 exhaustion assay of human T cells and CD8+ T cells; format: cell-based; conditions: 20 μM TVA; 0.5 μg/mL rhPD-L1, 72 hours; IL-2, TNF-α
[10] = system: mouse primary CD8^+ T cells; test: In vitro function of activated mouse primary CD8+ T cells (cytokines, Ki-67, apoptosis, p-CREB); format: cell-based
Method: For experiments with live/dead criteria, cells were first stained with Fixable Viability Dyes (FVD) (Thermo Fisher Scientific) according to the manufacturer's instructions. Subsequent surface marker staining was performed in Flow Cytometry Staining Buffer (Thermo Fisher Scientific). Intracellular staining for flow panels containing nuclear proteins was performed using the eBioscience FoxP3/Transcription Factor Staining Buffer Set (Thermo Fisher Scientific) according to the manufacturer's instructions. For intracellular staining of cytoplasmic proteins, the Fixation/Permeabilization Solution Kit (BD Biosciences) was used according to the manufacturer's instructions. […] The cell pellets were washed again with FACS buffer, centrifuged at 300×g for 5 minutes, and incubated with antibodies in FACS buffer for 45 minutes-1 hour at room temperature. […] Treatment with sulfosuccinimidyl oleate (SSO) was performed by incubating cells with 100 μM SSO for 24 hours.

[11] = system: mouse CD8^+ T cells; test: KAS-seq, mouse CD8+ T cells; format: cell-based; conditions: 20 μM TVA, 20 min-2 h
Method: as §1

[12] = system: mouse primary CD8^+ T cells; test: Phospho antibody array; format: cell-based
Method: The quantification for pixel density in each spot of the array was carried out by subtracting background signals from the spot intensity using software ImageJ (ImageJ, RRID: SCR_003070). Please also refer to Resources Table and Table 6 for more details.

Structure (SMILES): CCCCCC/C=C/CCCCCCCCCC(=O)O [TVA, trans-vaccenic acid]
- average TVA level in tumor interstitial fluid (TIF) [1]: ~48 µM
- average serum TVA level [1]: ~386 µM
- in vitro expansion of CAR T cells ([2]; 3 lymphoma patients with age between 42 and 47): improves in vitro expansion
- in vitro expansion of CAR T cells ([2]; elder patient): do not respond to TVA treatment
- cAMP levels in CD8+ T cells [3]: elevates cAMP levels
- GO enrichment of altered gene bodies (KAS-seq) [4]: G-protein coupled receptor (GPCR) activities among the top-enriched ontologies
- IL-2 production of primary CD4+ T cells [5]: increased IL-2 production
- TNF-α, IFN-γ and apoptosis of primary CD4+ T cells [5]: non-altered expression of TNF-α and IFN-γ or apoptosis
- anti-tumor immunity (CD8+ T cells, dendritic cells, Treg, TAMs) [6]: enhances anti-tumor immunity
- Mouse CD4^+ T cell IL-2 level changes after treatment [7]: 155.6%
- p-CREB and p-STAT1 levels in tumor-infiltrating CD8+ T cells ([8]; B16F10 tumors from syngeneic mice fed on TVA): Increased p-CREB and p-STAT1 levels
- CD4+ T cell population in TILs ([8]; TVA diet, B16F10 tumors): not altered
- tumor-infiltrating populations of neutrophils and monocytes ([8]; TVA diet, B16F10 tumors): markedly increases tumor-infiltrating populations of neutrophils and monocytes
- conventional CD4+ T cell or CD4+Foxp3+ Treg cell populations ([8]; TVA diet, spleens, dLNs and tumors of B16F10 tumor-bearing mice): has no effects on conventional CD4^+ T cell
- cytokine expression in tumor-infiltrating CD8+ T cells ([8]; dietary TVA, B16F10 tumors): increased expression levels of cytokines including IL-2, TNF-α, and IFN-γ
- exhaustion of CD8+ T cells (PD-1 and LAG-3 expression) ([8]; dietary TVA, tumors and spleens, not dLNs): reduces exhaustion of CD8^+ T cells in tumors and spleens
- CD8+ T cell population in tumor-infiltrating lymphocytes (TILs) ([8]; enriched diet, B16F10 tumors): increased CD8^+ T cell population
- exhaustion of primary human bulk T cells and CD8+ T cells treated with recombinant PD-L1 [9]: significantly reverses exhaustion
- TVA wash-off assay (TVAc vs TVAw) ([10]; 20 μM TVA 48 hours vs 24 hours then medium without TVA): effects are reversible
- p-CREB level in CD8+ T cells, increasing concentrations ([10]; 8-Bromo-cAMP 0.01-100 μM or TVA 10-1000 μM, 24 hours): dose-dependent manner
- reversal of SCFA-dependent suppression on CD8+ T cells ([10]; TVA 20 μM with SCFA agonists): able to reverse SCFA-dependent suppression on CD8^+ T cells
- phosphorylation level of Lck (p-Lck) in CD8+ T cells ([10]; TVA treatment): does not alter phosphorylation level of Lck
- phosphorylation of CREB in CD8+ T cells ([10]; TVA treatment): promotes phosphorylation of CREB
- TNF-α and IFN-γ expression of primary CD8+ T cells ([10]; TVA treatment in vitro): increased expression of TNF-α and IFN-γ
- suppression of CD8+ T cells by pre-treatment with 20 mM acetate (acetate first) ([10]; acetate 12 hours, then TVA 20 μM 12 hours): can be reversed by TVA at 20 μM
- TVA level sufficient to reverse suppression of CD8+ T cells by acetate ([10]; acetate at 20 mM, TNF-α): ≤ 2 µM
- GO enrichment of altered gene bodies (KAS-seq) [11]: G-protein coupled receptor (GPCR) activities among the top-enriched ontologies
- p-CREB level (phospho-antibody array) ([12]; 40 min, 2 h and 6 h post-TVA treatment, reduces at 24 h): Increased p-CREB level
- p-STAT1 level (phospho-antibody array) ([12]; 2 h and 24 h TVA treatment): elevated
- phosphorylation level of AKT (p-AKT) ([12]; 2 h post-TVA treatment): reduced phosphorylation level of AKT (p-AKT)
- phosphorylation level of STAT3 (p-STAT3) ([12]; 2 h post-TVA treatment): increased phosphorylation level of STAT3 (p-STAT3)
- p-AKT level ([12]; 24 h post-TVA treatment): increased p-AKT level at 24 h
